Measured values: the NIST ThermoML archive (doi:10.1016/j.jct.2004.12.014)

Assays:
[1] = xn = mol fraction of the nth substance listed; conditions: 318.15 K, 101 kPa, Liquid
[2] = excess molar enthalpy (molar enthalpy of mixing); xn = mol fraction of the nth substance listed; conditions: 318.15 K, 101 kPa, Liquid

CCCCCOC(=O)CC [pentyl propanoate] + CCCCCCCCCCCCCCC
Conditions | excess molar enthalpy [kJ/mol] | excess molar volume [m3/mol]
[1], x1 = 0.0451 | – | 1.37e-07
[1], x1 = 0.1011 | – | 2.83e-07
[1], x1 = 0.1866 | – | 4.41e-07
[1], x1 = 0.2665 | – | 5.63e-07
[1], x1 = 0.341 | – | 6.68e-07
[1], x1 = 0.4128 | – | 7.28e-07
[1], x1 = 0.478 | – | 7.64e-07
[1], x1 = 0.5422 | – | 7.75e-07
[1], x1 = 0.5989 | – | 7.59e-07
[1], x1 = 0.6522 | – | 7.35e-07
[1], x1 = 0.7029 | – | 6.74e-07
[1], x1 = 0.7542 | – | 6.2e-07
[1], x1 = 0.7997 | – | 5.33e-07
[1], x1 = 0.8438 | – | 4.51e-07
[1], x1 = 0.8845 | – | 3.62e-07
[1], x1 = 0.924 | – | 2.42e-07
[1], x1 = 0.9627 | – | 1.57e-07
[2], x1 = 0.0757 | 0.277 | –
[2], x1 = 0.1563 | 0.519 | –
[2], x1 = 0.2383 | 0.728 | –
[2], x1 = 0.3152 | 0.888 | –
[2], x1 = 0.3915 | 0.995 | –
[2], x1 = 0.4596 | 1.05 | –
[2], x1 = 0.52 | 1.06 | –
[2], x1 = 0.5607 | 1.05 | –
[2], x1 = 0.5843 | 1.03 | –
[2], x1 = 0.6262 | 0.988 | –
[2], x1 = 0.6747 | 0.921 | –
[2], x1 = 0.7264 | 0.836 | –
[2], x1 = 0.7806 | 0.727 | –
[2], x1 = 0.8352 | 0.59 | –
[2], x1 = 0.892 | 0.417 | –
[2], x1 = 0.9477 | 0.224 | –

CCCCCCCCCCCCCCCCC [heptadecane] + CCCOC(=O)CC
Conditions | excess molar enthalpy [kJ/mol] | excess molar volume [m3/mol]
[1], x2 = 0.0801 | – | 2.62e-07
[1], x2 = 0.1272 | – | 4.01e-07
[1], x2 = 0.2396 | – | 6.78e-07
[1], x2 = 0.3349 | – | 8.74e-07
[1], x2 = 0.4168 | – | 9.74e-07
[1], x2 = 0.4924 | – | 1.046e-06
[1], x2 = 0.5597 | – | 1.06e-06
[1], x2 = 0.6205 | – | 1.048e-06
[1], x2 = 0.6702 | – | 1.016e-06
[1], x2 = 0.7236 | – | 9.42e-07
[1], x2 = 0.7691 | – | 8.65e-07
[1], x2 = 0.81 | – | 7.81e-07
[1], x2 = 0.8486 | – | 6.76e-07
[1], x2 = 0.8816 | – | 5.66e-07
[1], x2 = 0.9135 | – | 4.36e-07
[1], x2 = 0.9437 | – | 3.04e-07
[1], x2 = 0.972 | – | 1.85e-07
[2], x2 = 0.1025 | 0.449 | –
[2], x2 = 0.2064 | 0.809 | –
[2], x2 = 0.3097 | 1.12 | –
[2], x2 = 0.4012 | 1.33 | –
[2], x2 = 0.4828 | 1.44 | –
[2], x2 = 0.5438 | 1.48 | –
[2], x2 = 0.5906 | 1.48 | –
[2], x2 = 0.6218 | 1.46 | –
[2], x2 = 0.6489 | 1.42 | –
[2], x2 = 0.6819 | 1.35 | –
[2], x2 = 0.7208 | 1.26 | –
[2], x2 = 0.7615 | 1.15 | –
[2], x2 = 0.8015 | 1.02 | –
[2], x2 = 0.8436 | 0.86 | –
[2], x2 = 0.8861 | 0.683 | –
[2], x2 = 0.9283 | 0.459 | –
[2], x2 = 0.9659 | 0.216 | –

CCOC(=O)CC [ethyl propanoate] + CCCCCCCCC
Conditions | excess molar enthalpy, [2] [kJ/mol] | excess molar volume, [1] [m3/mol]
x1 = 0.0376 | – | 1.65e-07
x1 = 0.0817 | 0.385 | –
x1 = 0.0926 | – | 3.58e-07
x1 = 0.1719 | 0.705 | –
x1 = 0.1744 | – | 6.18e-07
x1 = 0.2554 | – | 8.2e-07
x1 = 0.2598 | 0.967 | –
x1 = 0.3255 | – | 9.43e-07
x1 = 0.3403 | 1.14 | –
x1 = 0.3925 | – | 1.022e-06
x1 = 0.4145 | 1.24 | –
x1 = 0.457 | – | 1.075e-06
x1 = 0.4797 | 1.29 | –
x1 = 0.4909 | 1.3 | –
x1 = 0.523 | – | 1.077e-06
x1 = 0.5379 | 1.3 | –
x1 = 0.5764 | 1.27 | –
x1 = 0.5826 | – | 1.066e-06
x1 = 0.5876 | 1.27 | –
x1 = 0.6277 | 1.22 | –
x1 = 0.6348 | – | 1.027e-06
x1 = 0.6791 | 1.13 | –
x1 = 0.6882 | – | 9.47e-07
x1 = 0.732 | 1.02 | –
x1 = 0.7398 | – | 8.52e-07
x1 = 0.7883 | 0.866 | 7.57e-07
x1 = 0.8344 | – | 6.26e-07
x1 = 0.8451 | 0.68 | –
x1 = 0.878 | – | 5.01e-07
x1 = 0.9016 | 0.464 | –
x1 = 0.9181 | – | 3.41e-07
x1 = 0.9517 | 0.247 | –
x1 = 0.9584 | – | 1.81e-07
